Experimental data published in ChEMBL document CHEMBL5465560, “Selectivity Literature for EUbOPEN Chemogenomic Library” (2024).
Non-standard residues stand in square brackets, D forms with d. Residues, ends and D or L forms follow the SMILES beside them. Arg(Me) = CNC(=N)NCCC[C@H](N)C(=O)O; d3Pal = N[C@H](Cc1cccnc1)C(=O)O; azaGly = NNC(=O)O

Assays:
[1] = biological target: Mitogen-activated protein kinase kinase kinase kinase 5 (Homo sapiens) (UniProt Q9Y4K4); assay: Selectivity interaction (33PanQinase Assay (Reaction Biology)) EUB0001107a MAP4K5
Chain of Mitogen-activated protein kinase kinase kinase kinase 5 (Homo sapiens) (Q9Y4K4 whole entry, looked up): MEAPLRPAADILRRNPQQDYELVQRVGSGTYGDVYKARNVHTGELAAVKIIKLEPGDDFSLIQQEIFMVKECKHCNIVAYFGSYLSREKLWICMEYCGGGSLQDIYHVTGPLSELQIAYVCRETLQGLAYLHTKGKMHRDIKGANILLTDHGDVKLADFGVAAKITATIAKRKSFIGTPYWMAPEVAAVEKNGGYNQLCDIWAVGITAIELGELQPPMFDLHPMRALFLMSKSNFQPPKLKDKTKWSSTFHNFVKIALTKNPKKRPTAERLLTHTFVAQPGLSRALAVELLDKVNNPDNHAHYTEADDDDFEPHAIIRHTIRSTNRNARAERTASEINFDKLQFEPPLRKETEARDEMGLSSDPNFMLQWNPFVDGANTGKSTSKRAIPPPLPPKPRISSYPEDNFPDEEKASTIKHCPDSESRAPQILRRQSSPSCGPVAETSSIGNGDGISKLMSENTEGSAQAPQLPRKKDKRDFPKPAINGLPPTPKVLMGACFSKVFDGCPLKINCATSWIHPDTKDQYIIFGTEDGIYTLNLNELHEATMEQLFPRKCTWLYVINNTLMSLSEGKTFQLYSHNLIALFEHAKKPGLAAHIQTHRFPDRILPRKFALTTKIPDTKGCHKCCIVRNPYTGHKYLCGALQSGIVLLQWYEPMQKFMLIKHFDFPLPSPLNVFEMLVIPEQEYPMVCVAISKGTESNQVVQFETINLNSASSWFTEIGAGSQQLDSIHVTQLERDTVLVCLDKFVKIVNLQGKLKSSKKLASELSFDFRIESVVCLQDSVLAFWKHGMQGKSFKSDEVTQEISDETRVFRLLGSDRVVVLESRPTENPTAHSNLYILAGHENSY

[2] = biological target: Serine/threonine-protein kinase PAK 2 (Homo sapiens) (UniProt Q13177); assay: Selectivity interaction (33PanQinase Assay (Reaction Biology)) EUB0001107a PAK2
Chain of Serine/threonine-protein kinase PAK 2 (Homo sapiens) (Q13177 whole entry): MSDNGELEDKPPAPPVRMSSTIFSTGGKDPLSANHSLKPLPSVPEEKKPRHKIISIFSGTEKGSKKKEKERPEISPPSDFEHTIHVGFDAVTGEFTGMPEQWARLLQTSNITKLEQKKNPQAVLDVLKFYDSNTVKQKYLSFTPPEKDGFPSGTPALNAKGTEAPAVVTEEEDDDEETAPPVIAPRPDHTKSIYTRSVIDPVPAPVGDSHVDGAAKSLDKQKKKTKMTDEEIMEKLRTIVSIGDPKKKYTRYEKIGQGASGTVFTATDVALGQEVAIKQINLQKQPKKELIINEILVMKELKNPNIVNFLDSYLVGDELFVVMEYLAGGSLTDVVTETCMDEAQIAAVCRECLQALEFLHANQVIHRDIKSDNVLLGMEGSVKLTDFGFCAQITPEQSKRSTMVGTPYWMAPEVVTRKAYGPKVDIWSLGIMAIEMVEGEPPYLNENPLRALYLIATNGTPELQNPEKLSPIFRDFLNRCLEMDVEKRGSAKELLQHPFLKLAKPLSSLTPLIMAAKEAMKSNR

[3] = biological target: Serine/threonine-protein kinase PAK 3 (Homo sapiens) (UniProt O75914); assay: Selectivity interaction (33PanQinase Assay (Reaction Biology)) EUB0001107a PAK3
[4] = biological target: Alpha-2B adrenergic receptor (Homo sapiens) (UniProt P18089); assay: Selectivity interaction (GPCR panel (PDSP screen)) EUB0001072a ADRA2B; details: at 10 µM
Chain of Alpha-2B adrenergic receptor (Homo sapiens) (P18089 whole entry): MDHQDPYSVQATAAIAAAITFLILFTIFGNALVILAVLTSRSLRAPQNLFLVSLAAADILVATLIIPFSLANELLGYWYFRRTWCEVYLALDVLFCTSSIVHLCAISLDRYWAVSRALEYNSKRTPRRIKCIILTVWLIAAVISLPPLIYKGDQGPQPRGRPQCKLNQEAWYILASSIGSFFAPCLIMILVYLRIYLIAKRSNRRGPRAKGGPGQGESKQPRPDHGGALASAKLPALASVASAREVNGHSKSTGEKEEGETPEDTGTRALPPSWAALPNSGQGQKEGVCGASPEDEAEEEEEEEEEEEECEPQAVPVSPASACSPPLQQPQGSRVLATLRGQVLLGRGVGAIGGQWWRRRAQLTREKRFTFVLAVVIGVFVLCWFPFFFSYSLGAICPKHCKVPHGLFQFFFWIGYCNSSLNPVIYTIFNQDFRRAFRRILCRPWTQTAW

[5] = biological target: T1, Muscarinic acetylcholine receptor M1 (Homo sapiens) (UniProt P11229); assay: Selectivity interaction (GPCR panel (PDSP screen)) EUB0001072a CHRM1; details: at 10 µM
T1 sequence (whole entry): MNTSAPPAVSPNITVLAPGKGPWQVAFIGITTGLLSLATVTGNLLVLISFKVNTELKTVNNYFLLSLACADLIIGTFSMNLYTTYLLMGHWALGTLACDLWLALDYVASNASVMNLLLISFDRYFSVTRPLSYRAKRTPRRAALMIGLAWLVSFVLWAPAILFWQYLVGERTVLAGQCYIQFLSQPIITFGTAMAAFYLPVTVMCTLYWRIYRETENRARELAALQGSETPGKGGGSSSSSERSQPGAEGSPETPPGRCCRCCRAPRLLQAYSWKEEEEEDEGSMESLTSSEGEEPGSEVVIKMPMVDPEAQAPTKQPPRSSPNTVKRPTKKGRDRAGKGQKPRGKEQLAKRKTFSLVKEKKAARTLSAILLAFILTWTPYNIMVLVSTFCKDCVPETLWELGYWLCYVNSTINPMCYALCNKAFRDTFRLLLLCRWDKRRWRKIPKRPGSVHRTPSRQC

[6] = biological target: T2, Muscarinic acetylcholine receptor M2 (Homo sapiens) (UniProt P08172); assay: Selectivity interaction (GPCR panel (PDSP screen)) EUB0001072a CHRM2; details: at 10 µM
T2 sequence (whole entry): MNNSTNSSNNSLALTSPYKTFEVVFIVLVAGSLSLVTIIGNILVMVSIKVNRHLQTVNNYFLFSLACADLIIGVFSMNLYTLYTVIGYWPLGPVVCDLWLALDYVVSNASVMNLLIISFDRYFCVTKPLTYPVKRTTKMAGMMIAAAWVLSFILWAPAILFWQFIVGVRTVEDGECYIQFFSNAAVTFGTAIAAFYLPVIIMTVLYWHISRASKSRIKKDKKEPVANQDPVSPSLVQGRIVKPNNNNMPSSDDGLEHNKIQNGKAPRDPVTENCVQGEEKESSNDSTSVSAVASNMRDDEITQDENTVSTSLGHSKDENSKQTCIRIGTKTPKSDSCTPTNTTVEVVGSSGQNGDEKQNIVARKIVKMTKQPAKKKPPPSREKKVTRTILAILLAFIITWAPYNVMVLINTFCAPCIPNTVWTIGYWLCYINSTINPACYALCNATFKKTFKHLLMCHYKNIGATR

[7] = biological target: Muscarinic acetylcholine receptor M3 (Homo sapiens, UniProt P20309); assay: Selectivity interaction (GPCR panel (PDSP screen)) EUB0001072a CHRM3; details: at 10 µM
[8] = biological target: Muscarinic acetylcholine receptor M4 (Homo sapiens) (UniProt P08173); assay: Selectivity interaction (GPCR panel (PDSP screen)) EUB0001072a CHRM4; details: at 10 µM
[9] = biological target: Muscarinic acetylcholine receptor M5 (Homo sapiens) (UniProt P08912); assay: Selectivity interaction (GPCR panel (PDSP screen)) EUB0001072a CHRM5; details: at 10 µM
[10] = biological target: D(1B) dopamine receptor (Homo sapiens) (UniProt P21918); assay: Selectivity interaction (GPCR panel (PDSP screen)) EUB0001072a DRD5; details: at 10 µM
Chain of D(1B) dopamine receptor (Homo sapiens) (P21918 whole entry): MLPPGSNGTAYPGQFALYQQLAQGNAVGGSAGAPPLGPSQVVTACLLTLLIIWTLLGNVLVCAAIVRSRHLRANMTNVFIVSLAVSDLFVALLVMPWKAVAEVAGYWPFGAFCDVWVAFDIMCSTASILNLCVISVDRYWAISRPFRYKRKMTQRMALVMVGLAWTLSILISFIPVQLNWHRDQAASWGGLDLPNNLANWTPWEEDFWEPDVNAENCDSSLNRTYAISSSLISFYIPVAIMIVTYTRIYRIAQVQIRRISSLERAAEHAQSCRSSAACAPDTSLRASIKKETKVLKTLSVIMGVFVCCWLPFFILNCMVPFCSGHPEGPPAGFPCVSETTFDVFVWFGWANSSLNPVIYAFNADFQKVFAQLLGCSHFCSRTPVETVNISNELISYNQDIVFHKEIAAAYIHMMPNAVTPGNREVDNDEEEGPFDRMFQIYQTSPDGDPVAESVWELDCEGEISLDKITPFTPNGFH

[11] = biological target: 4-aminobutyrate aminotransferase, mitochondrial (Homo sapiens, UniProt P80404); assay: Selectivity interaction (GPCR panel (PDSP screen)) EUB0001072a ABAT; details: at 10 µM
Chain of 4-aminobutyrate aminotransferase, mitochondrial (P80404 whole entry): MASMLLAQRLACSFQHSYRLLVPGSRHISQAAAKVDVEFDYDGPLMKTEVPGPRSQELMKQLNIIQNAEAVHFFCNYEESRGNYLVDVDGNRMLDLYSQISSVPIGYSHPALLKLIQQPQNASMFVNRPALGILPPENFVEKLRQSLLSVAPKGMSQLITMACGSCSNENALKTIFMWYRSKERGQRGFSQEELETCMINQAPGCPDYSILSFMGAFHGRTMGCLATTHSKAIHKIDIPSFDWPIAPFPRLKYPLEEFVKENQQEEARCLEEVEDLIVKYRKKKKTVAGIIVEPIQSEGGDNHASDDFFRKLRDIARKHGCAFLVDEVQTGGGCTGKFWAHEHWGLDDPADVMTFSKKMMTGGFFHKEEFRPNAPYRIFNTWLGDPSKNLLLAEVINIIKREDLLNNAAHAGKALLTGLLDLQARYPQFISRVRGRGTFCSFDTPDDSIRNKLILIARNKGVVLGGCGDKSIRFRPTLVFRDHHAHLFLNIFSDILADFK

[12] = biological target: T3, Gamma-aminobutyric acid receptor subunit alpha-1 (Homo sapiens) (UniProt P14867); assay: (§1) Selectivity interaction (GPCR panel (PDSP screen)) EUB0001072a GABRA1; details: at 10 µM
T3 sequence (whole entry): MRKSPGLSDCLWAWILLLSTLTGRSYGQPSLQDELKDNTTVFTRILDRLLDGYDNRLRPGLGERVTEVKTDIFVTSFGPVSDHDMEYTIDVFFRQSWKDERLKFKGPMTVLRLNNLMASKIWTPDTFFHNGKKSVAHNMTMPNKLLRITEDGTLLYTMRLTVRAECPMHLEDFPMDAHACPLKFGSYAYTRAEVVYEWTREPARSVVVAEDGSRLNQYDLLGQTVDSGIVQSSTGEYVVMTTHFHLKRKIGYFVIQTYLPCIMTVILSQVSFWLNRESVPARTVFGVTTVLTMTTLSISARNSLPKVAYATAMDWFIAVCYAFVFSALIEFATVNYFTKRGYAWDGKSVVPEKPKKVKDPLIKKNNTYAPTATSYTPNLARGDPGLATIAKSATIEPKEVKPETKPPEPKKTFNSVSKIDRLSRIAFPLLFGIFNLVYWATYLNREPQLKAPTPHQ

[13] = biological target: T3, Gamma-aminobutyric acid receptor subunit alpha-1 (Homo sapiens); assay: as §1; details: at 10 µM; remark: listed apart in the source
Histamine H3 receptor = Histamine H3 receptor (Homo sapiens, UniProt Q9Y5N1); assay: Selectivity interaction (GPCR panel (PDSP screen)) EUB0001072a HRH3; details: at 10 µM
[14] = biological target: T4, 5-hydroxytryptamine receptor 1A (Homo sapiens) (UniProt P08908); assay: Selectivity interaction (GPCR panel (PDSP screen)) EUB0001072a HTR1A; details: at 10 µM
T4 sequence (whole entry): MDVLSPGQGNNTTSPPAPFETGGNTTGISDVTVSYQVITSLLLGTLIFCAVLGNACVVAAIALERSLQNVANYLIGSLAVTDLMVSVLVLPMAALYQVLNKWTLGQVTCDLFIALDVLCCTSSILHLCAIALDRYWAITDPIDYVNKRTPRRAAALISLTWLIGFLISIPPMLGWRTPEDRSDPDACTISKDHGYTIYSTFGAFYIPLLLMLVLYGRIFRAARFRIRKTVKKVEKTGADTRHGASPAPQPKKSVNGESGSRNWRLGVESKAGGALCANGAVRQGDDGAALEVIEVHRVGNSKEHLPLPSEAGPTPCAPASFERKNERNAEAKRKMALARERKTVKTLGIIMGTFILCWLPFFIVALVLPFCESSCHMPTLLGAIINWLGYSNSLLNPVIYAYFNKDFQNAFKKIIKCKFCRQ

[15] = biological target: 5-hydroxytryptamine receptor 1B (Homo sapiens) (UniProt P28222); assay: Selectivity interaction (GPCR panel (PDSP screen)) EUB0001072a HTR1B; details: at 10 µM
Chain of 5-hydroxytryptamine receptor 1B (Homo sapiens) (P28222 whole entry): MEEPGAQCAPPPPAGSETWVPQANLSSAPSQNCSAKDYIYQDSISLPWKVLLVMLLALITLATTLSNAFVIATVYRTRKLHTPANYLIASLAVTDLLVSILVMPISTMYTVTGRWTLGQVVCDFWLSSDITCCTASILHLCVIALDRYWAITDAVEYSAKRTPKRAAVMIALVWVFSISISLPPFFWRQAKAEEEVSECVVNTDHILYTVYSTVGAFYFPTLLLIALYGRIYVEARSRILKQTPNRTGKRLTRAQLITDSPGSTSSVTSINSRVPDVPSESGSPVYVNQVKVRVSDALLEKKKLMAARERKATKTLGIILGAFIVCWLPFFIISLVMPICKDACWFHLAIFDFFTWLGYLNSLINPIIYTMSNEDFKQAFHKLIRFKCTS

[16] = biological target: 5-hydroxytryptamine receptor 1D (Homo sapiens) (UniProt P28221); assay: Selectivity interaction (GPCR panel (PDSP screen)) EUB0001072a HTR1D; details: at 10 µM
Chain of 5-hydroxytryptamine receptor 1D (Homo sapiens) (P28221 whole entry): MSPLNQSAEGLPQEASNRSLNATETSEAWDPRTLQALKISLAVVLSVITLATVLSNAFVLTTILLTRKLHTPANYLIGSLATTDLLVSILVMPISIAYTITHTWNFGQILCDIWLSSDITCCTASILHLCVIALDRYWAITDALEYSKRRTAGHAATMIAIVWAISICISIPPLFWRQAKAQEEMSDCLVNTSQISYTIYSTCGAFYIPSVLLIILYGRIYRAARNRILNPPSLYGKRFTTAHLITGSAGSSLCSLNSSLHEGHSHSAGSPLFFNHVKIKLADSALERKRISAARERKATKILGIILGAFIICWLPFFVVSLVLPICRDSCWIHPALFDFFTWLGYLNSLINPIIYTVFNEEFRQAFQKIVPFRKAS

[17] = biological target: 5-hydroxytryptamine receptor 1E (Homo sapiens) (UniProt P28566); assay: Selectivity interaction (GPCR panel (PDSP screen)) EUB0001072a HTR1E; details: at 10 µM
[18] = biological target: 5-hydroxytryptamine receptor 2A (Homo sapiens, UniProt P28223); assay: Selectivity interaction (GPCR panel (PDSP screen)) EUB0001072a HTR2A; details: at 10 µM
[19] = biological target: 5-hydroxytryptamine receptor 2B (Homo sapiens, UniProt P41595); assay: Selectivity interaction (GPCR panel (PDSP screen)) EUB0001072a HTR2B; details: at 10 µM
[20] = biological target: 5-hydroxytryptamine receptor 5A (Homo sapiens) (UniProt P47898); assay: Selectivity interaction (GPCR panel (PDSP screen)) EUB0001072a HTR5A; details: at 10 µM
[21] = biological target: Sodium-dependent dopamine transporter (Homo sapiens, UniProt Q01959); assay: Selectivity interaction (GPCR panel (PDSP screen)) EUB0001072a SLC6A3; details: at 10 µM
Chain of Sodium-dependent dopamine transporter (Q01959 whole entry): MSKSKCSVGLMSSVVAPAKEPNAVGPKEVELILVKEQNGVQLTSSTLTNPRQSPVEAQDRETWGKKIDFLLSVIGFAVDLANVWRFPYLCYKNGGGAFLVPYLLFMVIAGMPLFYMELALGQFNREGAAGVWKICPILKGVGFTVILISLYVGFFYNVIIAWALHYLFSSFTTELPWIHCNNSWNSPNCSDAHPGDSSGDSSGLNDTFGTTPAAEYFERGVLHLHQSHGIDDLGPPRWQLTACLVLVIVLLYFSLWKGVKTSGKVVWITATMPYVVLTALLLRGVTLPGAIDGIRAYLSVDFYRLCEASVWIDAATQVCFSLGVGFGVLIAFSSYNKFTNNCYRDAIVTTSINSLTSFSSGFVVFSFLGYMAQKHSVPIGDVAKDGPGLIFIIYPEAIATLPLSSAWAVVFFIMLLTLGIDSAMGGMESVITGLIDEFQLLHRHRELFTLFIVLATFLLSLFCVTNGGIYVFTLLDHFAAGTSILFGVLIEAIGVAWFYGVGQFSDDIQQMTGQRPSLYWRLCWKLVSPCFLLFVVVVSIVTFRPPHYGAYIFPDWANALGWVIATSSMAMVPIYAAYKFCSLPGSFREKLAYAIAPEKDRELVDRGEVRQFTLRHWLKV

[22] = biological target: T5, Cytoplasmic tyrosine-protein kinase BMX (Homo sapiens) (UniProt P51813); assay: Selectivity interaction (KinomeScan (DiscoverX)) EUB0001068a BMX; details: at 1 µM
T5 sequence (whole entry): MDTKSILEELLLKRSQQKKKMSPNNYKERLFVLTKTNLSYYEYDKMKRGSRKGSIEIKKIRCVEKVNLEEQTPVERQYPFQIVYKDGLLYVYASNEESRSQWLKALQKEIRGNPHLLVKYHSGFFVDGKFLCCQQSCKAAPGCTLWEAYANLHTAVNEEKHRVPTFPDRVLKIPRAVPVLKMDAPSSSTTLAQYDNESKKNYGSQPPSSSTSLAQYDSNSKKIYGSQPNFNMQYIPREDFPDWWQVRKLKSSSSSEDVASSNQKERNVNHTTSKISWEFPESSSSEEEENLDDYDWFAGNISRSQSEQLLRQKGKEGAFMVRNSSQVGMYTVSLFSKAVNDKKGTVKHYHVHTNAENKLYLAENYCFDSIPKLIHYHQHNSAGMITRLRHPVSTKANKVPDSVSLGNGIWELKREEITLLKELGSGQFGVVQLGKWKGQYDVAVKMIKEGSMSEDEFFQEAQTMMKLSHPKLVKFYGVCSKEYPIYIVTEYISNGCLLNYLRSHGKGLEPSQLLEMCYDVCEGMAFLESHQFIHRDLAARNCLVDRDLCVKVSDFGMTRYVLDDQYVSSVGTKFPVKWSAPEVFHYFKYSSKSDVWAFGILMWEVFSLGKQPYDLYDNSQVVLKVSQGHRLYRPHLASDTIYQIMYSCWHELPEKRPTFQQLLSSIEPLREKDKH

[23] = biological target: T6, Serine/threonine-protein kinase Nek1 (Homo sapiens) (UniProt Q96PY6); assay: Selectivity interaction (KinomeScan (DiscoverX)) EUB0001068a NEK1; details: at 1 µM
T6 sequence (whole entry): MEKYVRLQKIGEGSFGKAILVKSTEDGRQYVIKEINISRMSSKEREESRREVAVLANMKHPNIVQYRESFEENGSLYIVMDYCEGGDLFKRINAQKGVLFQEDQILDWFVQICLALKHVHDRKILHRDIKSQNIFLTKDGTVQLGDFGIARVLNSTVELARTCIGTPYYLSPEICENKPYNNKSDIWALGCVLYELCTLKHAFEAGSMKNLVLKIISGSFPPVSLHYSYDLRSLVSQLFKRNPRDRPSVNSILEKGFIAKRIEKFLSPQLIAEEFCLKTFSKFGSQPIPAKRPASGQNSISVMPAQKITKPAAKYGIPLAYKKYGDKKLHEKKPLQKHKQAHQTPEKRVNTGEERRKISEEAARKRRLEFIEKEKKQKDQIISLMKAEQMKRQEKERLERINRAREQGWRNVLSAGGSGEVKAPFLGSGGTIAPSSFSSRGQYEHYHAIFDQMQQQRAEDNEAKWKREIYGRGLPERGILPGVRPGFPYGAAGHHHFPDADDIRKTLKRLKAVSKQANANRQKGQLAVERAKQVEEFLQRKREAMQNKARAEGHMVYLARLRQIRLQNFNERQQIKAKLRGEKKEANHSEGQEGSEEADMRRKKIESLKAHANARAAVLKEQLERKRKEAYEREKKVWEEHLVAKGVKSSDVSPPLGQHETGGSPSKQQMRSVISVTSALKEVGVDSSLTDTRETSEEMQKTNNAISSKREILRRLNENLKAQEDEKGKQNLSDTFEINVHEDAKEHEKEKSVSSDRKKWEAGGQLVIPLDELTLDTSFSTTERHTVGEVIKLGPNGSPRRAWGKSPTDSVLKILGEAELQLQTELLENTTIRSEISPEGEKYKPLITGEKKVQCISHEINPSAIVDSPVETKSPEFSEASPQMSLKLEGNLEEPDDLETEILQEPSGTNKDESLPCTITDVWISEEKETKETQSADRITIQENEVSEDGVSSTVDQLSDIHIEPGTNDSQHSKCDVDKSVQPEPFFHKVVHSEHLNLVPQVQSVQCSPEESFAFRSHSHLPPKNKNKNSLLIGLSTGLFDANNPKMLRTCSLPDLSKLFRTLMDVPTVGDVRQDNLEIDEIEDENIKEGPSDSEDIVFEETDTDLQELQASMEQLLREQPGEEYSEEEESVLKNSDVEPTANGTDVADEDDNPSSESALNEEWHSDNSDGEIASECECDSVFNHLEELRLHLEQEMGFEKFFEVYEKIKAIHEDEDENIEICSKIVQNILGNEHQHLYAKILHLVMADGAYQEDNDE

[24] = biological target: Serine/threonine-protein kinase 38-like (Homo sapiens) (UniProt Q9Y2H1); assay: Selectivity interaction (KinomeScan (DiscoverX)) EUB0001068a STK38L; details: at 1 µM
Chain of Serine/threonine-protein kinase 38-like (Homo sapiens) (Q9Y2H1 2-464 limits assumed): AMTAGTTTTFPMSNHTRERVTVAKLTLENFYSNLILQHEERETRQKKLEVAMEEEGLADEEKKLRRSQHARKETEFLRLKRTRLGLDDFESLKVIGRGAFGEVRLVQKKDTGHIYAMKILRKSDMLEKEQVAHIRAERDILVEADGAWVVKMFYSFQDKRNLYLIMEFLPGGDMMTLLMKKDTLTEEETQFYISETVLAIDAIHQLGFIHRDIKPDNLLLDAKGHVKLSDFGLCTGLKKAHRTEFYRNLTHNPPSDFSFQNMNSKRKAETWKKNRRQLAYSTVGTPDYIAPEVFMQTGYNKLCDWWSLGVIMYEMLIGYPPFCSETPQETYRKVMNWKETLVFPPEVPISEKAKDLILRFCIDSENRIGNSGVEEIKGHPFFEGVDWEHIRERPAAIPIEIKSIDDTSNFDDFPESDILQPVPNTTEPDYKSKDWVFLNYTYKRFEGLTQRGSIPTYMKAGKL

CNc1ncc2cc(-c3ccc(-c4ncccc4F)cc3Cl)c(=O)n(C[C@H]3OC[C@H](N)CO3)c2n1
% of residual activity [1]: 8%
% of residual activity [2]: 10%
% of residual activity [3]: 9%

CNC(=N)NCCC[C@H](NC(=O)[C@H](CC(C)C)NC(=O)NNC(=O)[C@H](Cc1ccccc1)NC(=O)[C@H](CO)NC(=O)[C@H](CC(N)=O)NC(=O)[C@@H](Cc1cccnc1)NC(=O)[C@H](N)Cc1ccc(O)cc1)C(=O)NCC(N)=O (H-[dY][d3Pal]NSF[azaGly]L[Arg(Me)]G-NH2)
% of inhibition [4]: 14.5%
% of inhibition [5]: 15.1%
% of inhibition [6]: 40.7%
% of inhibition [7]: 24.7%
% of inhibition [8]: 18.5%
% of inhibition [9]: 12.3%
% of inhibition [10]: 29.2%
% of inhibition [11]: 15.6%
% of inhibition [12]: 15.5%
% of inhibition [13]: 12.3%
% of inhibition (Histamine H3 receptor): 12.5%
% of inhibition [14]: 30.9%
% of inhibition [15]: 31%
% of inhibition [16]: 12.4%
% of inhibition [17]: 27.9%
% of inhibition [18]: 16.9%
% of inhibition [19]: 11.3%
% of inhibition [20]: 16.3%
% of inhibition [21]: 10.4%

CN(C(=O)c1ccccc1)c1cc(N(C)c2ccc3c(c2)CCc2ccc(C(=O)NCCN4CCOCC4)cc2C3=O)ccc1F
% of control [22]: 50%
% of control [23]: 45%
% of control [24]: 47%
